From ChEMBL document CHEMBL4651402, “Screening of ~5500 FDA-approved drugs and clinical candidates for anti-SARS-CoV-2 activity” (2021)
pIC50: −log10 of the molar value.

Assays:
[1] = system: SARS-CoV-2; test: microbe, parasite or virus in culture; type: functional, organism-based, Chlorocebus sabaeus, Vero C1008; conditions: Severe acute respiratory syndrome coronavirus 2, Vero C1008, 48 h; for pIC50: read-out: IC50; for IC50: read-out: pIC50 (converted)
[2] = in vitro; conditions: chlorocebus sabaeus, Vero E6 (Vero C1008) cells
[3] = system: SARS-CoV-2; test: microbe, parasite or virus in culture; conditions: Severe acute respiratory syndrome coronavirus 2, Vero C1008, 48 h; for IC50: read-out: pIC50 (converted)

Structure (SMILES) | pIC50 [1] | IC50 [1] [µM] | CC50 at 48 h ([2]; CC50) [µM] | CC50 at 48 h ([2]; pCC50) [µM] | pIC50 [3] | IC50 [3] [µM]
CN(C)CC/C=C1\c2ccccc2CSc2ccccc21 [DOTHIEPIN] | < 4.60 | > 25.1 | 20 | 20 | 4.78 | 16.6
O=C(NC1CN2CCC1CC2)c1cc(Cl)cc2c1OC1CCCCC21 (centres undefined) | < 4.60 | > 25.1 | 21.6 | 21.4 | 5.10 | 7.94
Cc1nc(Nc2ccc(F)cc2)nc(N2CCc3ccccc3C2C)c1C (centres undefined) [REVAPRAZAN] | 4.98 | 10.5 | 11.5 | 11.5 | < 4.00 | > 100
COc1cc(C(=O)OCCCN2CCCN(CCCOC(=O)c3cc(OC)c(OC)c(OC)c3)CC2)cc(OC)c1OC [DILAZEP] | < 4.00 | > 100 | ~28.2 | ~28.2 | < 4.00 | > 100
Cc1c(-c2ccccc2)oc2c(C(=O)OC(C)(C)CN3CCCCC3)cccc2c1=O [TERFLAVOXATE] | < 4.00 | > 100 | ~63.1 | ~63.1 | < 4.00 | > 100
COC(=O)[C@H]1[C@H]2C[C@@H]3c4[nH]c5cc(OC)ccc5c4CCN3C[C@H]2C[C@@H](OC(=O)c2cc(OC)c(OC)c(OC)c2)[C@@H]1OC [RESERPINE] | < 4.30 | > 50.1 | ~11 | ~11 | < 4.60 | > 25.1
OC(CCCN1CCc2c(c3cc(F)ccc3n2-c2ccc(F)cc2)C1)c1ccc(F)cc1 (centres undefined) [FLUTROLINE] | < 4.00 | > 100 | 6.92 | 6.92 | 5.33 | 4.68
CCN(CC)CCCNc1cc(OC)cc2cccnc12 | < 4.00 | > 100 | > 100 | > 100 | 4.61 | 24.5
CN(C)CCOC(C)(c1ccccc1)c1ccc(Cl)cc1 (centres undefined) [CHLORPHENOXAMINE] | ~4.84 | ~14.5 | 28.2 | 28.2 | 4.71 | 19.5
CCC(CC)COC(=O)[C@H](C)N[P@](=O)(OC[C@H]1O[C@@](C#N)(c2ccc3c(N)ncnn23)[C@H](O)[C@@H]1O)Oc1ccccc1 | ~5.59 | ~2.57 | 95.5 | 95.5 | ~5.33 | ~4.68
CC(=O)c1ccc2c(c1)N(CCCN1CCC(CCO)CC1)c1ccccc1S2 [PIPERACETAZINE] | < 4.90 | > 12.6 | 12.2 | 12 | 4.79 | 16.2
CC(C)(C)NC[C@H](O)COc1ccccc1C1CCCC1 [PENBUTOLOL] | 4.70 | 20 | 29.5 | 29.5 | 4.82 | 15.1
COc1ccccc1OCCNCC(O)COc1cccc2[nH]c3ccccc3c12 (centres undefined) [CARVEDILOL] | 5.00 | 10 | 17 | 17 | 4.81 | 15.5
OC(Cn1cncn1)(Cn1cnc(/C=C/c2ccc(OCC(F)(F)C(F)F)cc2)n1)c1ccc(F)cc1F (centres undefined) | < 4.00 | > 100 | 25.7 | 25.7 | < 4.00 | > 100
CCOC(=O)Nc1ccc(NCc2ccc(F)cc2)nc1N [FLUPIRTINE] | < 4.00 | > 100 | > 100 | > 100 | < 4.00 | > 100
NC(CO)(CO)CCc1ccc(Sc2cccc(OCc3ccccc3)c2)cc1Cl [MOCRAVIMOD] | < 4.00 | > 100 | 3.06 | 3.02 | 5.48 | 3.31
Clc1ccc(-c2nn(Cc3ccccc3)c3c2CCNCC3)cc1 [JNJ-18038683 FREE BASE] | < 4.60 | > 25.1 | 14.6 | 14.5 | < 4.60 | > 25.1
COc1ccc([C@@H](Cc2ccncc2)c2ccccc2)cc1OC1CCCC1 | < 4.00 | > 100 | 23.4 | 23.4 | < 4.00 | > 100
CC(C)CN(C[C@@H](O)[C@H](Cc1ccccc1)NC(=O)O[C@H]1CO[C@H]2OCC[C@H]21)S(=O)(=O)c1ccc2nc(NC3CCN(C4CCCC4)CC3)sc2c1 [TMC 310911] | ~5.02 | ~9.55 | ~13 | ~12.9 | 5.40 | 3.89
Cc1cccc(C)c1NC(=O)CN1CCN(CCCC(c2ccc(F)cc2)c2ccc(F)cc2)CC1 [LIDOFLAZINE] | < 4.00 | > 100 | 8.41 | 8.32 | 5.02 | 9.55

Structure (SMILES) | pIC50 [1] | IC50 [1] [µM] | CC50 at 48 h ([2]; CC50) [µM] | CC50 at 48 h ([2]; pCC50) [µM] | pIC50 [3] | IC50 [3] [µM]
Cc1nc2ccccn2c(=O)c1CCN1CCC(=C(c2ccc(F)cc2)c2ccc(F)cc2)CC1 [SEGANSERIN] | < 4.00 | > 100 | 10.2 | 10.2 | 5.12 | 7.59
CN(C)CCON=C1c2ccccc2CCc2ccccc21 [NOXIPTILINE] | < 4.00 | > 100 | 77.6 | 77.6 | 4.85 | 14.1
CN1CCCC(CC2c3ccccc3Sc3ccccc32)C1 (centres undefined) [METHIXENE] | < 4.00 | > 100 | 10.1 | 10 | 5.02 | 9.55
CCOC(=O)Oc1c(OC)cc(C(=O)OC2CC3CN4CCc5c([nH]c6cc(OC)ccc56)C4CC3C(C(=O)OC)C2OC)cc1OC (centres undefined) | < 4.00 | > 100 | 8.91 | 8.91 | < 4.00 | > 100
C=C1CC[C@@H]2[C@](C)(CO)[C@H](O)CC[C@@]2(C)[C@@H]1C/C=C1/C(=O)OC[C@H]1O [ANDROGRAPHOLIDE] | < 4.00 | > 100 | ~21.6 | ~21.4 | < 4.00 | > 100
O=C(c1ccc(F)cc1)C1CCN(CCCn2c(=O)[nH]c3cc(Cl)ccc32)CC1 [MILENPERONE] | < 4.00 | > 100 | 32.4 | 32.4 | < 4.00 | > 100
CCCCN(CCCC)CCCOc1ccc(C(=O)c2c(CC)cc3ccccn23)cc1 [BUTOPROZINE] | < 4.00 | > 100 | 6.61 | 6.61 | < 4.00 | > 100
COc1ccc(C#Cc2ccccc2)c(CCC(C)N(C)CCc2ccc(OC)c(OC)c2)c1 (centres undefined) | < 4.00 | > 100 | 4.84 | 4.79 | 5.37 | 4.27
Nc1ccc2cc3ccc(N)cc3nc2c1 [PROFLAVINE] | < 4.60 | > 25.1 | ~6.61 | ~6.61 | ~4.82 | ~14.8
Cc1[nH]c(/C=C2\C(=O)Nc3ccccc32)c(C)c1CCC(=O)O [ORANTINIB] | < 4.60 | > 25.1 | > 25.1 | > 25.1 | ~5.75 | ~1.78
CC(=O)[C@@]12OC(C)(c3ccccc3)O[C@@H]1CC1C3CCC4=CC(=O)CCC4(C)C3CCC12C (some centres undefined) | < 4.90 | > 12.6 | 15.5 | 15.5 | < 4.00 | > 100
NC(=O)C1CN(CCCCC(c2ccc(F)cc2)c2ccc(F)cc2)CCN1CC(=O)Nc1c(Cl)cc(N)cc1Cl (centres undefined) [DRAFLAZINE] | < 4.00 | > 100 | 9.66 | 9.55 | < 4.00 | > 100
CN(C)CCOC1=Cc2ccccc2Sc2ccc(Cl)cc21 [ZOTEPINE] | < 4.00 | > 100 | 12.3 | 12.3 | < 4.00 | > 100
Nc1nc2nn[nH]c2c(=O)[nH]1 [8-AZAGUANINE] | < 4.30 | > 50.1 | 23.7 | 23.4 | < 4.30 | > 50.1
NC(=O)C1(N2CCCCC2)CCN(CCCN2c3ccccc3CCc3ccccc32)CC1 [CARPIPRAMINE] | < 4.00 | > 100 | 8.61 | 8.51 | 5.05 | 8.91
CCC1CN2CCC1CC2C(O)c1ccnc2ccc(OCCC(C)C)cc12 (centres undefined) | < 4.00 | > 100 | 11.4 | 11.2 | < 4.00 | > 100
NC(=O)C(c1ccccc1)(c1ccccc1)[C@@H]1CCN(CCc2ccc3c(c2)CCO3)C1 [DARIFENACIN] | < 4.00 | > 100 | 56.2 | 56.2 | < 4.60 | > 25.1
COc1ccc2c(c1)c(CC(=O)O)c(C)n2C(=O)c1ccc(Cl)cc1 [INDOMETHACIN] | < 4.00 | > 100 | > 100 | > 100 | < 4.00 | > 100
NCC[C@H](Oc1ccc(C(F)(F)F)cc1)c1ccccc1 [SEPROXETINE] | < 4.00 | > 100 | 10.6 | 10.5 | 5.12 | 7.59
